Assay results from ChEMBL document CHEMBL3244076, “N,N'-(Phenylene)dioxamic acids and their esters as antiallergy agents” (1978).

Legend:
Assay type in all cases: functional
Rattus norvegicus [1] = assay: Antiallergic activity in anti-egg albumin homocytotropic antibody-sensitized Sprague-Dawley rat assessed as inhibition of passive cutaneous anaphylaxis reaction at 50 mg/kg, po administered 5 mins prior to antigen egg albumin challenge
Rattus norvegicus [2] = assay: Antiallergic activity in anti-egg albumin homocytotropic antibody-sensitized Sprague-Dawley rat assessed as inhibition of passive cutaneous anaphylaxis reaction at 50 mg/kg, po administered 20 mins prior to antigen egg albumin challenge
Rattus norvegicus [3] = assay: Antiallergic activity in anti-egg albumin homocytotropic antibody-sensitized Sprague-Dawley rat assessed as inhibition of passive cutaneous anaphylaxis reaction at 50 mg/kg, po administered 60 mins prior to antigen egg albumin challenge
Rattus norvegicus [4] = assay: Antiallergic activity in anti-egg albumin homocytotropic antibody-sensitized Sprague-Dawley rat assessed as inhibition of passive cutaneous anaphylaxis reaction at 50 mg/kg, po administered 120 mins prior to antigen egg albumin challenge
Rattus norvegicus [5] = assay: Antiallergic activity in anti-egg albumin homocytotropic antibody-sensitized Sprague-Dawley rat assessed as time of peak action for inhibition of passive cutaneous anaphylaxis reaction at 50 mg/kg, po administered prior to antigen egg albumin challenge
Rattus norvegicus [6] = assay: Antiallergic activity in anti-egg albumin homocytotropic antibody-sensitized Sprague-Dawley rat assessed as inhibition of passive cutaneous anaphylaxis reaction at 50 mg/kg, po administered prior to antigen egg albumin challenge
Rattus norvegicus [7] = assay: Antiallergic activity in anti-egg albumin homocytotropic antibody-sensitized Sprague-Dawley rat assessed as inhibition of passive cutaneous anaphylaxis reaction at 0.1 mg/kg, iv administered at the time of antigen egg albumin challenge
Rattus norvegicus [8] = assay: Antiallergic activity in anti-egg albumin homocytotropic antibody-sensitized Sprague-Dawley rat assessed as inhibition of passive cutaneous anaphylaxis reaction at 0.01 mg/kg, iv administered at the time of antigen egg albumin challenge
Rattus norvegicus [9] = assay: Antiallergic activity in anti-egg albumin homocytotropic antibody-sensitized Sprague-Dawley rat assessed as inhibition of passive cutaneous anaphylaxis reaction at 0.001 mg/kg, iv administered at the time of antigen egg albumin challenge
Rattus norvegicus [10] = assay: Antiallergic activity in anti-egg albumin homocytotropic antibody-sensitized Sprague-Dawley rat assessed as inhibition of passive cutaneous anaphylaxis reaction at 1 mg/kg, iv administered at the time of antigen egg albumin challenge
Rattus norvegicus [11] = assay: Antiallergic activity in anti-egg albumin homocytotropic antibody-sensitized Sprague-Dawley rat assessed as inhibition of passive cutaneous anaphylaxis reaction at 10 mg/kg, po administered 60 mins prior to antigen egg albumin challenge
Rattus norvegicus [12] = assay: Antiallergic activity in anti-egg albumin homocytotropic antibody-sensitized Sprague-Dawley rat assessed as inhibition of passive cutaneous anaphylaxis reaction at 10 mg/kg, po administered 5 mins prior to antigen egg albumin challenge
Rattus norvegicus [13] = assay: Antiallergic activity in anti-egg albumin homocytotropic antibody-sensitized Sprague-Dawley rat assessed as inhibition of passive cutaneous anaphylaxis reaction at 10 mg/kg, po administered 20 mins prior to antigen egg albumin challenge
Rattus norvegicus [14] = assay: Antiallergic activity in iv dosed anti-egg albumin homocytotropic antibody-sensitized Sprague-Dawley rat assessed as inhibition of passive cutaneous anaphylaxis reaction administered at the time of antigen egg albumin challenge
Rattus norvegicus [15] = assay: Antiallergic activity in po dosed anti-egg albumin homocytotropic antibody-sensitized Sprague-Dawley rat assessed as lowest concentration required for >20% inhibition of passive cutaneous anaphylaxis reaction administered prior to antigen egg albumin challenge
Rattus norvegicus [16] = assay: Ratio of disodium cromoglycate ED50 to compound ED50 for antiallergic activity in iv dosed anti-egg albumin homocytotropic antibody-sensitized Sprague-Dawley rat by passive cutaneous anaphylaxis reaction analysis

Row | Compound | inhibition in vivo at 50 mg/kg (Rattus norvegicus [2]) | inhibition in vivo at 50 mg/kg (Rattus norvegicus [3]) | inhibition in vivo at 50 mg/kg (Rattus norvegicus [4]) | inhibition in vivo at 0.1 mg/kg (Rattus norvegicus [7]) | inhibition in vivo at 0.01 mg/kg (Rattus norvegicus [8]) | other results
1 | CCOC(=O)C(=O)Nc1cc(NC(=O)C(=O)OCC)cc(C(=O)O)c1 | 0% | 0% | 20% |  |  | inhibition in vivo at 50 mg/kg (Rattus norvegicus [1]): 14%
2 | CCCCCCOC(=O)C(=O)Nc1cc(C#N)cc(NC(=O)C(=O)OCCCCCC)c1Cl |  |  |  |  |  | Time (Rattus norvegicus [5]): 5 min; inhibition in vivo at 50 mg/kg (Rattus norvegicus [6]): 51%
3 | CCOC(=O)C(=O)Nc1cc(NC(=O)C(=O)OCC)cc(NC(=O)C(=O)OCC)c1 | 0% | 5% | 0% |  |  | 
4 | O=C(O)C(=O)Nc1cc(C(F)(F)F)cc(NC(=O)C(=O)O)c1Cl |  |  |  | 100% | 90% | inhibition in vivo at 0.001 mg/kg (Rattus norvegicus [9]): 0%
5 | N#Cc1cc(NC(=O)C(=O)OC23CC4CC(CC(C4)C2)C3)c(Cl)c(NC(=O)C(=O)OC23CC4CC(CC(C4)C2)C3)c1 |  |  |  |  |  | Time (Rattus norvegicus [5]): 60 min; inhibition in vivo at 50 mg/kg (Rattus norvegicus [6]): 50%
6 | N#Cc1cc(NC(=O)C(=O)O)cc(NC(=O)C(=O)O)c1Cl |  |  |  | 100% | 20% | inhibition in vivo at 0.001 mg/kg (Rattus norvegicus [9]): 0%; inhibition in vivo at 1 mg/kg (Rattus norvegicus [10]): 100%
7 | CC(=O)Nc1cc(NC(=O)C(=O)O)cc(NC(=O)C(=O)O)c1 |  |  |  | 11% | 0% | inhibition in vivo at 1 mg/kg (Rattus norvegicus [10]): 47%
8 | O=C(O)C(=O)Nc1cc(NC(=O)C(=O)O)c(Cl)cc1Cl |  |  |  | 25% | 0% | inhibition in vivo at 1 mg/kg (Rattus norvegicus [10]): 81%
9 | CCOC(=O)C(=O)Nc1cc(C#N)cc(NC(=O)C(=O)OCC)c1 |  |  |  |  |  | inhibition in vivo at 10 mg/kg (Rattus norvegicus [11]): 0%; inhibition in vivo at 10 mg/kg (Rattus norvegicus [12]): 95%; inhibition in vivo at 10 mg/kg (Rattus norvegicus [13]): 25%
10 | O=C(O)C(=O)Nc1cccc(NC(=O)C(=O)O)c1 |  |  |  | 73% | 0% | inhibition in vivo at 1 mg/kg (Rattus norvegicus [10]): 82%
11 | CCOC(=O)C(=O)Nc1cc(C(=O)OC)cc(NC(=O)C(=O)OCC)c1Cl | 7% | 0% | 0% |  |  | 
12 | CCOC(=O)C(=O)Nc1cc(C(=O)OC)c(Cl)c(NC(=O)C(=O)OCC)c1Cl | 0% | 0% | 0% |  |  | 
13 | CCOC(=O)C(=O)Nc1cc(C(=O)O)cc(NC(=O)C(=O)OCC)c1C | 0% | 0% | 0% |  |  | inhibition in vivo at 50 mg/kg (Rattus norvegicus [1]): 0%
14 | N#Cc1cc(NC(=O)C(=O)O)cc(NC(=O)C(=O)O)c1 |  |  |  | 90% | 57% | 
15 | CCOC(=O)C(=O)Nc1cc(NC(C)=O)cc(NC(=O)C(=O)OCC)c1 | 1% | 0% | 24% |  |  | inhibition in vivo at 50 mg/kg (Rattus norvegicus [1]): 6%
16 | CCOC(=O)C(=O)Nc1ccc(OC)c(NC(=O)C(=O)OCC)c1 | 70% | 11% | 45% |  |  | inhibition in vivo at 50 mg/kg (Rattus norvegicus [1]): 50%
17 | O=C([O-])c1cc(=O)c2c(OCC(O)COc3cccc4oc(C(=O)[O-])cc(=O)c34)cccc2o1.[Na+].[Na+] [CROMOLYN SODIUM] |  |  |  |  |  | ED50 (Rattus norvegicus [14]): 2.5 mg/kg
18 | CCOC(=O)C(=O)Nc1cc(C#N)cc(NC(=O)C(=O)OCC)c1Cl [LODOXAMIDE ETHYL] | 31% | 0% |  |  |  | inhibition in vivo at 50 mg/kg (Rattus norvegicus [1]): 100%; LED (Rattus norvegicus [15]): 0.1 mg/kg; Time (Rattus norvegicus [5]): 5 min

Row | Compound | inhibition in vivo at 50 mg/kg (Rattus norvegicus [2]) | inhibition in vivo at 50 mg/kg (Rattus norvegicus [3]) | inhibition in vivo at 50 mg/kg (Rattus norvegicus [4]) | inhibition in vivo at 0.1 mg/kg (Rattus norvegicus [7]) | inhibition in vivo at 0.01 mg/kg (Rattus norvegicus [8]) | other results
19 | CCOC(=O)C(=O)Nc1cc(NC(=O)C(=O)OCC)cc(OC)c1 | 4% | 0% | 29% |  |  | 
20 | O=C(O)C(=O)Nc1cc(-c2ccccc2)cc(NC(=O)C(=O)O)c1Cl |  |  |  | 87% | 44% | inhibition in vivo at 1 mg/kg (Rattus norvegicus [10]): 94%
21 | CCOC(=O)C(=O)Nc1cc(C(C)=O)cc(NC(=O)C(=O)OCC)c1Cl | 14% | 37% | 31% |  |  | 
22 | CCCCc1ccc(NC(=O)C(=O)OCC)cc1NC(=O)C(=O)OCC | 0% | 5% | 0% |  |  | inhibition in vivo at 50 mg/kg (Rattus norvegicus [1]): 0%
23 | CCCCOC(=O)C(=O)Nc1cc(C#N)cc(NC(=O)C(=O)OCCCC)c1Cl |  |  |  |  |  | Time (Rattus norvegicus [5]): 5 min; inhibition in vivo at 50 mg/kg (Rattus norvegicus [6]): 100%
24 | O=C(O)C(=O)Nc1cccc(NC(=O)C(=O)O)c1Cl |  |  |  | 32% |  | inhibition in vivo at 1 mg/kg (Rattus norvegicus [10]): 75%
25 | CCOC(=O)C(=O)Nc1cccc(NC(=O)C(=O)OCC)c1C(=O)OC | 27% | 15% | 0% |  |  | 
26 | Cc1cc(NC(=O)C(=O)O)c(Cl)c(NC(=O)C(=O)O)c1 |  |  |  | 91% | 20% | inhibition in vivo at 0.001 mg/kg (Rattus norvegicus [9]): 2%; inhibition in vivo at 1 mg/kg (Rattus norvegicus [10]): 100%
27 | CCOC(=O)C(=O)Nc1cccc(NC(=O)C(=O)OCC)c1 | 94% | 14% | 29% |  |  | inhibition in vivo at 50 mg/kg (Rattus norvegicus [1]): 3%; LED (Rattus norvegicus [15]): 1 mg/kg; Time (Rattus norvegicus [5]): 20 min
28 | NC(=O)c1cc(NC(=O)C(=O)O)c(Cl)c(NC(=O)C(=O)O)c1 |  |  |  | 28% | 0% | inhibition in vivo at 1 mg/kg (Rattus norvegicus [10]): 90%
29 | N#Cc1cc(NC(=O)C(=O)O)c(Cl)c(NC(=O)C(=O)O)c1 [LODOXAMIDE] |  |  |  |  | 94% | Ratio ED50 (Rattus norvegicus [16]): 2500; inhibition in vivo at 0.001 mg/kg (Rattus norvegicus [9]): 50%
30 | CCOC(=O)C(=O)Nc1cccc(NC(=O)C(=O)OCC)c1Cl | 17% | 1.8% |  |  |  | inhibition in vivo at 50 mg/kg (Rattus norvegicus [1]): 53%; Time (Rattus norvegicus [5]): 5 min
31 | CC(=O)c1cc(NC(=O)C(=O)O)c(Cl)c(NC(=O)C(=O)O)c1 |  |  |  | 22% | 0% | inhibition in vivo at 1 mg/kg (Rattus norvegicus [10]): 88%
32 | O=C(O)C(=O)Nc1ccc(F)c(NC(=O)C(=O)O)c1 |  |  |  | 41% |  | inhibition in vivo at 1 mg/kg (Rattus norvegicus [10]): 100%
33 | CCOC(=O)C(=O)Nc1ccc(C#N)c(NC(=O)C(=O)OCC)c1 |  |  |  |  |  | inhibition in vivo at 10 mg/kg (Rattus norvegicus [11]): 19%; inhibition in vivo at 10 mg/kg (Rattus norvegicus [12]): 7%; inhibition in vivo at 10 mg/kg (Rattus norvegicus [13]): 19%
34 | CCOC(=O)C(=O)Nc1cc(C)cc(NC(=O)C(=O)OCC)c1Cl | 26% | 0% | 3% |  |  | 
35 | CCOC(=O)C(=O)Nc1cc(C(=O)O)cc(NC(=O)C(=O)OCC)c1Cl | 41% | 15% | 9% |  |  | inhibition in vivo at 50 mg/kg (Rattus norvegicus [1]): 15%
